Measurements taken from patent US6737383B1, “Herbicidal oxadiazolidines” (priority 1999, dated 2004).

Experiments:
goosegrass = experiment: Test D goosegrass; assay type: in vivo, Eleusine indica; details: Preemergence, 0 to 100 scale
In short: (§1)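 Scoring used a 0–100 visual injury scale, with 0 meaning no effect and 100 complete control, assessed 14–21 days after application alongside untreated pots. Preemergence treatments went onto sandy loam surfaces of separately potted seeds within a day of sowing.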

purple nutsedge [1] = experiment: Test D purple nutsedge; assay type: in vivo, Cyperus rotundus; details: Preemergence, 0 to 100 scale
In short: as §1

bermuda-grass [2] = experiment: Test D bermudagrass; assay type: in vivo, Cynodon dactylon; details: Preemergence, 0 to 100 scale
From the text: (§2) Seeds, tubers, or plant parts of Alexandergrass (Brachiaria plantaginea), bermuda-grass (Cynodon dactylon), common pursiane (Portulaca oleracea), common ragweed (Ambrosia elatior), common groundsel (Senecio vulgaris), dallisgrass (Paspalum dilatatum), goosegrass (Eleusine indica), guineagrass (Panicum maximum), itchgrass (Rottboellia exaltata), Johnson grass (Sorghum halepense), large crabgrass (Digitaria sanguinalis), pitted morningglory (Ipomoea lacunosa), purple nutsedge (Cyperus rotundus), sandbur (Cenchrus echinatus), sourgrass (Trichachne insularis), Spanishneedles (Bidens bipinnata), surinam grass (Brachiaria decumbens) and tall mallow (Malva sylvestris) were planted into greenhouse pots of flats containing greenhouse planting medium. Plant species were grown in separate pots or individual compartments. Preemergence applications were made within one day of planting the seed or plant part.
(§3) Test chemicals were formulated in a non-phytotoxic solvent mixture which included a surfactant and applied preemergence to the surface of the pot containing seeds in a sandy loam soil. Untreated control pots and treated pots were placed in the greenhouse for growth and visually evaluated for injury 14 to 21 days after herbicide application. Plant response ratings, summarized in Table C, are based on a 0 to 100 scale where 0 is no injury and 100 is complete control. A dash (−) response means no test result.

surinam grass [3] = experiment: Test D surinam grass; assay type: in vivo, Brachiaria decumbens; details: Preemergence, 0 to 100 scale
In short: as §1

guineagrass [4] = experiment: Test D guineagrass; assay type: in vivo, Panicum maximum; details: Preemergence, 0 to 100 scale
From the text: as §2, §3

galium = experiment: Test E galium; assay type: in vivo, Galium aparine; details: Postemergence
In short: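 Compounds formulated in non-phytotoxic solvent mixture with surfactant; for postemergence, sprayed on plants at 1- to 4-leaf stage grown in 60:40 sandy loam/greenhouse potting mix. Kept in greenhouse ~21 to 28 days, then visually rated against untreated controls.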

velvetleaf = experiment: Test C postemergence velvetleaf; assay type: in vivo, Abutilon theophrasti; details: 0 to 100 scale, 0 no effect, 100 complete control
In short: (§4)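 In this greenhouse assay, treated and untreated plants were kept for approximately 14 to 21 days following postemergence application, then rated by eye on a scale from 0 (no effect) to 100 (complete control).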

fall panicum = experiment: Test C postemergence fall panicum; assay type: in vivo, Panicum dichotomiflorum; details: 0 to 100 scale, 0 no effect, 100 complete control
In short: as §4

eastern black nightshade = experiment: Test C postemergence eastern black nightshade; assay type: in vivo, Solanum ptycanthum; details: 0 to 100 scale, 0 no effect, 100 complete control
In short: as §4

crabgrass = experiment: Test A crabgrass; assay type: in vivo, Digitaria spp.; details: 0 to 10 scale where 0 is no effect and 10 is complete control
In short: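 Ratings came from visual comparison with untreated plants about eleven days after treatment, scored 0 for no effect through 10 for complete control. Both soil-drench preemergence and runoff-spray postemergence applications were made at the same time.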

large crabgrass = experiment: Test D large crabgrass; assay type: in vivo, Digitaria sanguinalis; details: Postemergence, 0 to 100 scale
common pursiane = experiment: Test D common purslane; assay type: in vivo, Portulaca oleracea; details: Postemergence, 0 to 100 scale
surinam grass [5] = experiment: Test D surinam grass; assay type: in vivo, Brachiaria decumbens; details: Postemergence, 0 to 100 scale
guineagrass [6] = experiment: Test D guineagrass; assay type: in vivo, Panicum maximum; details: Postemergence, 0 to 100 scale
purple nutsedge [7] = experiment: Test D purple nutsedge; assay type: in vivo, Cyperus rotundus; details: Postemergence, 0 to 100 scale
common ragweed = experiment: Test D common ragweed; assay type: in vivo, Ambrosia elatior; details: Postemergence, 0 to 100 scale
bermuda-grass [8] = experiment: Test D bermudagrass; assay type: in vivo, Cynodon dactylon; details: Postemergence, 0 to 100 scale
Johnson grass = experiment: Test D Johnson grass; assay type: in vivo, Sorghum halepense; details: Postemergence, 0 to 100 scale
[9] = Rate 32 g/ha, 0 no injury, 100 complete control
[10] = Rate 64 g/ha, 0 no injury, 100 complete control
[11] = Rate 125 g/ha, 0 no injury, 100 complete control
[12] = Rate 250 g/ha, 0 to 100 scale (0 no effect, 100 complete control)
[13] = Rate 16 g/ha, 0 no injury, 100 complete control

SMILES: Cc1cccc(C)c1-n1c(=O)on(C(=O)N(c2ccc(F)cc2F)C(C)C)c1=O [Compound 28]
- Plant response rating, Goosegrass (goosegrass; [9]): 0
- Plant response rating, Goosegrass (goosegrass; [10]): 85
- Plant response rating, Goosegrass (goosegrass; [11]): 98
- Plant response rating, Goosegrass (goosegrass; Rate 250 g/ha): 100
- Plant response rating, Purple nutsedge (purple nutsedge [1]; [9]): 0
- Purple nutsedge plant response rating (purple nutsedge [1]; [10]): 0
- Purple nutsedge plant response rating (purple nutsedge [1]; [11]): 0
- Plant response rating, Purple nutsedge (purple nutsedge [1]; Rate 250 g/ha): 0
- Plant response rating, Bermudagrass (bermuda-grass [2]; [9]): 85
- Plant response rating, Bermudagrass (bermuda-grass [2]; [10]): 100
- Plant response rating, Bermudagrass (bermuda-grass [2]; [11]): 100
- Plant response rating, Bermudagrass (bermuda-grass [2]; Rate 250 g/ha): 100
- Plant response rating, Surinam grass (surinam grass [3]; [9]): 0
- Surinam grass plant response rating (surinam grass [3]; [10]): 0
- Surinam grass plant response rating (surinam grass [3]; [11]): 65
- Plant response rating, Surinam grass (surinam grass [3]; Rate 250 g/ha): 75
- Plant response rating, Guineagrass (guineagrass [4]; [9]): 40
- Plant response rating, Guineagrass (guineagrass [4]; [10]): 65
- Plant response rating, Guineagrass (guineagrass [4]; [11]): 75
- Plant response rating, Guineagrass (guineagrass [4]; Rate 250 g/ha): 98

SMILES: CCn1c(=O)on(C(=O)N(c2ccc(F)cc2)C(C)C)c1=O [Compound 107]
- Plant response rating, Galium (galium; Rate 62 g/ha, 0 to 100 scale): 5
- Plant response rating, Galium (galium; Rate 125 g/ha, 0 to 100 scale): 30
- Plant response rating, Galium (galium; [12]): 30
- Plant response rating, Goosegrass (goosegrass; [13]): 85
- Plant response rating, Goosegrass (goosegrass; [9]): 98
- Plant response rating, Goosegrass (goosegrass; [10]): 100
- Plant response rating, Goosegrass (goosegrass; [11]): 100
- Plant response rating, Goosegrass (goosegrass; Rate 250 g/ha): 100
- Plant response rating, Goosegrass (goosegrass; Rate 500 g/ha): 100
- Plant response rating, Purple nutsedge (purple nutsedge [1]; [13]): 0
- Plant response rating, Purple nutsedge (purple nutsedge [1]; [9]): 0
- Purple nutsedge plant response rating (purple nutsedge [1]; [10]): 20
- Purple nutsedge plant response rating (purple nutsedge [1]; [11]): 65
- Plant response rating, Purple nutsedge (purple nutsedge [1]; Rate 250 g/ha): 85
- Plant response rating, Purple nutsedge (purple nutsedge [1]; Rate 500 g/ha): 85
- Plant response rating, Bermudagrass (bermuda-grass [2]; [13]): 85
- Plant response rating, Bermudagrass (bermuda-grass [2]; [9]): 100
- Plant response rating, Bermudagrass (bermuda-grass [2]; [10]): 100
- Plant response rating, Bermudagrass (bermuda-grass [2]; [11]): 100
- Plant response rating, Bermudagrass (bermuda-grass [2]; Rate 250 g/ha): 100
- Plant response rating, Bermudagrass (bermuda-grass [2]; Rate 500 g/ha): 100
- Plant response rating, Surinam grass (surinam grass [3]; [13]): 30
- Plant response rating, Surinam grass (surinam grass [3]; [9]): 75
- Surinam grass plant response rating (surinam grass [3]; [10]): 100
- Surinam grass plant response rating (surinam grass [3]; [11]): 100
- Plant response rating, Surinam grass (surinam grass [3]; Rate 250 g/ha): 100
- Plant response rating, Surinam grass (surinam grass [3]; Rate 500 g/ha): 100
- Plant response rating, Velvetleaf (velvetleaf; Rate 140 g/ha): 5
- Plant response rating, Velvetleaf (velvetleaf; Rate 280 g/ha): 60
- Plant response rating, Velvetleaf (velvetleaf; Rate 560 g/ha): 70
- Plant response rating, Velvetleaf (velvetleaf; Rate 1120 g/ha): 75
- Plant response rating Fall panicum (fall panicum; Rate 140 g/ha): 50
- Plant response rating Fall panicum (fall panicum; Rate 280 g/ha): 60
- Plant response rating Fall panicum (fall panicum; Rate 560 g/ha): 85
- Plant response rating Fall panicum (fall panicum; Rate 1120 g/ha): 85
- Plant response rating, Guineagrass (guineagrass [4]; [13]): 65
- Plant response rating, Guineagrass (guineagrass [4]; [9]): 75
- Plant response rating, Guineagrass (guineagrass [4]; [10]): 100
- Plant response rating, Guineagrass (guineagrass [4]; [11]): 100
- Plant response rating, Guineagrass (guineagrass [4]; Rate 250 g/ha): 100
- Plant response rating, Guineagrass (guineagrass [4]; Rate 500 g/ha): 100
- Plant response rating E. blacknightsh (eastern black nightshade; Rate 140 g/ha): 50
- Plant response rating E. blacknightsh (eastern black nightshade; Rate 280 g/ha): 50
- Plant response rating E. blacknightsh (eastern black nightshade; Rate 560 g/ha): 70
- Plant response rating E. blacknightsh (eastern black nightshade; Rate 1120 g/ha): 95

SMILES: CCn1c(=O)on(C(=O)N(c2ccc(F)cc2F)C(C)C)c1=O [Compound 116]
- Plant response rating, Galium (galium; Rate 62 g/ha, 0 to 100 scale): 30
- Plant response rating, Galium (galium; Rate 125 g/ha, 0 to 100 scale): 40
- Plant response rating, Galium (galium; [12]): 40
- Plant response rating, Galium (galium; Rate 500 g/ha, 0 to 100 scale, 0 no effect, 100 complete control): 70
- Plant response rating, Velvetleaf (velvetleaf; Rate 140 g/ha): 0
- Plant response rating, Velvetleaf (velvetleaf; Rate 280 g/ha): 0
- Plant response rating, Velvetleaf (velvetleaf; Rate 560 g/ha): 40
- Plant response rating, Velvetleaf (velvetleaf; Rate 1120 g/ha): 80
- Plant response rating Fall panicum (fall panicum; Rate 140 g/ha): 10
- Plant response rating Fall panicum (fall panicum; Rate 280 g/ha): 60
- Plant response rating Fall panicum (fall panicum; Rate 560 g/ha): 85
- Plant response rating Fall panicum (fall panicum; Rate 1120 g/ha): 90
- Plant response rating E. blacknightsh (eastern black nightshade; Rate 140 g/ha): 0
- Plant response rating E. blacknightsh (eastern black nightshade; Rate 280 g/ha): 0
- Plant response rating E. blacknightsh (eastern black nightshade; Rate 560 g/ha): 10
- Plant response rating E. blacknightsh (eastern black nightshade; Rate 1120 g/ha): 50

SMILES: CCOC(=O)Cn1c(=O)on(C(=O)N(c2ccc(F)cc2)C(C)C)c1=O [Compound 128]
- Plant response rating, Crabgrass (crabgrass; Postemergence, Rate 1000 g/ha): 0
- Plant response rating, Crabgrass (crabgrass; Pre-emergence, Rate 2000 g/ha): 0

SMILES: Cc1ccccc1Cn1c(=O)on(C(=O)N(c2ccc(Cl)cc2)C(C)C)c1=O [Compound 136]
- Plant response rating, Crabgrass (crabgrass; Postemergence, Rate 1000 g/ha): 6
- Plant response rating, Crabgrass (crabgrass; Pre-emergence, Rate 2000 g/ha): 10

SMILES: C=C(C)Cn1c(=O)on(C(=O)N(c2ccc(F)cc2)C(C)C)c1=O [Compound 139]
- Plant response rating, Goosegrass (goosegrass; [10]): 98
- Purple nutsedge plant response rating (purple nutsedge [1]; [10]): 0
- Plant response rating, Bermudagrass (bermuda-grass [2]; [10]): 98
- Surinam grass plant response rating (surinam grass [3]; [10]): 20
- Plant response rating, Guineagrass (guineagrass [4]; [10]): 65

SMILES: CC(C)N(C(=O)n1oc(=O)n(C2(C)CC2)c1=O)c1ccccc1 [Compound 360]
- Plant response rating Large crabgrass (large crabgrass; [13]): 0
- Plant response rating Large crabgrass (large crabgrass; [9]): 80
- Plant response rating Large crabgrass (large crabgrass; [10]): 100
- Plant response rating Large crabgrass (large crabgrass; [11]): 100
- Plant response rating Large crabgrass (large crabgrass; Rate 250 g/ha): 100
- Plant response rating, C. purslane (common pursiane; [13]): 0
- Plant response rating, C. purslane (common pursiane; [9]): 0
- Plant response rating, C. purslane (common pursiane; [10]): 0
- Plant response rating, C. purslane (common pursiane; [11]): 0
- Plant response rating, C. purslane (common pursiane; Rate 250 g/ha): 0
- Plant response rating, Surinam grass (surinam grass [5]; [13]): 0
- Plant response rating, Surinam grass (surinam grass [5]; [9]): 0
- Surinam grass plant response rating (surinam grass [5]; [10]): 100
- Surinam grass plant response rating (surinam grass [5]; [11]): 90
- Plant response rating, Surinam grass (surinam grass [5]; Rate 250 g/ha): 100
- Plant response rating, Guineagrass (guineagrass [6]; [13]): 0
- Plant response rating, Guineagrass (guineagrass [6]; [9]): 100
- Guineagrass plant response rating (guineagrass [6]; [10]): 100
- Plant response rating, Guineagrass (guineagrass [6]; [11]): 100
- Plant response rating, Guineagrass (guineagrass [6]; Rate 250 g/ha): 100
- Plant response rating, Purple nutsedge (purple nutsedge [7]; [13]): 0
- Plant response rating, Purple nutsedge (purple nutsedge [7]; [9]): 0
- Purple nutsedge plant response rating (purple nutsedge [7]; [10]): 0
- Purple nutsedge plant response rating (purple nutsedge [7]; [11]): 10
- Plant response rating, Purple nutsedge (purple nutsedge [7]; Rate 250 g/ha): 20
- Plant response rating, C. ragweed (common ragweed; [13]): 0
- Plant response rating, C. ragweed (common ragweed; [9]): 0
- C. ragweed plant response rating (common ragweed; [10]): 30
- Plant response rating, C. ragweed (common ragweed; [11]): 30
- Plant response rating, C. ragweed (common ragweed; Rate 250 g/ha): 30
- Plant response rating, Bermudagrass (bermuda-grass [8]; [13]): 0
- Plant response rating, Bermudagrass (bermuda-grass [8]; [9]): 100
- Plant response rating, Bermudagrass (bermuda-grass [8]; [10]): 100
- Plant response rating, Bermudagrass (bermuda-grass [8]; [11]): 100
- Plant response rating, Bermudagrass (bermuda-grass [8]; Rate 250 g/ha): 100
- Plant response rating Johnsongrass (Johnson grass; [13]): 0
- Plant response rating Johnsongrass (Johnson grass; [9]): 0
- Plant response rating Johnsongrass (Johnson grass; [10]): 0
- Plant response rating Johnsongrass (Johnson grass; [11]): 50
- Plant response rating Johnsongrass (Johnson grass; Rate 250 g/ha): 70
